According to ChEMBL document CHEMBL1139861, “Novel series of potent, nonsteroidal, selective androgen receptor modulators based on 7H-[1,4]oxazino[3,2-g]quinolin-7-ones” (J Med Chem, 2007):

How the values were obtained:
Androgen receptor [1] = target: T1, Androgen receptor (Homo sapiens, UniProt P10275)
T1 sequence (P10275 whole entry): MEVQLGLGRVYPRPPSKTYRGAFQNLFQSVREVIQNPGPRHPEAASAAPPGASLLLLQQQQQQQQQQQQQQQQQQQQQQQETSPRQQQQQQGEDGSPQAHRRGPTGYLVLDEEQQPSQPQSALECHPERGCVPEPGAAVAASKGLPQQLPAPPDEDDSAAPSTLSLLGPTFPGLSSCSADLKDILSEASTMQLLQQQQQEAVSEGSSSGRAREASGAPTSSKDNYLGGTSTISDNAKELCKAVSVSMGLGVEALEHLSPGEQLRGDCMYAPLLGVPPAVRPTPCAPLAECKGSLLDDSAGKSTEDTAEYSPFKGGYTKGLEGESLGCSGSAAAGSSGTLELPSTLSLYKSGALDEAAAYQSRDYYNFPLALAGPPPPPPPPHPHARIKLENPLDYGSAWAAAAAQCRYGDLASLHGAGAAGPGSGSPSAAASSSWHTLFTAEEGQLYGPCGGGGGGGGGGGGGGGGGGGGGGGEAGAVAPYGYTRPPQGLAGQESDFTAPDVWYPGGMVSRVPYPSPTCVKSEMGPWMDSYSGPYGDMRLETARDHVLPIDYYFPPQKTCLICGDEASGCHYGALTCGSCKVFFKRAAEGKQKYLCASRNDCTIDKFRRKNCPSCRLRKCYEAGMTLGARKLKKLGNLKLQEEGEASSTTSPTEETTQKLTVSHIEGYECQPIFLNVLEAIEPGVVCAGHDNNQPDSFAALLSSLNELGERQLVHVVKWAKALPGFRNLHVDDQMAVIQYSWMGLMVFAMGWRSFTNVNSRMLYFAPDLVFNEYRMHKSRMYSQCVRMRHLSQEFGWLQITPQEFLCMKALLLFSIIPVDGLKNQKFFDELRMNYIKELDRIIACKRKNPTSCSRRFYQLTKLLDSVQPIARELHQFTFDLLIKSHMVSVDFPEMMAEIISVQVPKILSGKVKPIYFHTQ
Description: Antagonist activity at human androgen receptor expressed in CV1 cells by transcriptional activation assay

Glucocorticoid receptor = target: T2, Glucocorticoid receptor (Homo sapiens, UniProt P04150); experiment: Displacement of radiolabeled Dexamethasone from human GR
T2 sequence (P04150 whole entry): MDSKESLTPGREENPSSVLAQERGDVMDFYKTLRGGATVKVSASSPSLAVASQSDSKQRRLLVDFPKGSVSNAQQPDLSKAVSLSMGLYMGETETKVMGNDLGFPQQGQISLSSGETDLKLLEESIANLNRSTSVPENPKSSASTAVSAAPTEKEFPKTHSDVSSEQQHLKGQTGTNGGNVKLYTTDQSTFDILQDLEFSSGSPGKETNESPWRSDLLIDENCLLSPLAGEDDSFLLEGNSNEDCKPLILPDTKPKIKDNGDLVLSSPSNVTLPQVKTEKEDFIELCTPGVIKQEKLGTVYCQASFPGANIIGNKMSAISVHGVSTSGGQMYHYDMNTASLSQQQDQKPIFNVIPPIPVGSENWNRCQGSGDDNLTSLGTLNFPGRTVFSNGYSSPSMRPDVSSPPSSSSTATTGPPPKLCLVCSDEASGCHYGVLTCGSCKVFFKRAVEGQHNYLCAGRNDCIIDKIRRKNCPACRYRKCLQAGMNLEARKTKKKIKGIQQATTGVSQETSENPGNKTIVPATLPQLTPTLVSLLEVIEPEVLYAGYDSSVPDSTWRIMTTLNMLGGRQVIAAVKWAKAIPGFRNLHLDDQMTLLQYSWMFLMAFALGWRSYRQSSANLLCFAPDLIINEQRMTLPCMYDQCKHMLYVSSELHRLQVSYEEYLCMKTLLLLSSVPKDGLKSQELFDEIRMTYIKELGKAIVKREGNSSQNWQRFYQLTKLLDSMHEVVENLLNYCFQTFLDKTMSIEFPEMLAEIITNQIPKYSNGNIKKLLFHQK

[2] = target: T3, Mineralocorticoid receptor (Homo sapiens, UniProt P08235)
T3 sequence (P08235 whole entry): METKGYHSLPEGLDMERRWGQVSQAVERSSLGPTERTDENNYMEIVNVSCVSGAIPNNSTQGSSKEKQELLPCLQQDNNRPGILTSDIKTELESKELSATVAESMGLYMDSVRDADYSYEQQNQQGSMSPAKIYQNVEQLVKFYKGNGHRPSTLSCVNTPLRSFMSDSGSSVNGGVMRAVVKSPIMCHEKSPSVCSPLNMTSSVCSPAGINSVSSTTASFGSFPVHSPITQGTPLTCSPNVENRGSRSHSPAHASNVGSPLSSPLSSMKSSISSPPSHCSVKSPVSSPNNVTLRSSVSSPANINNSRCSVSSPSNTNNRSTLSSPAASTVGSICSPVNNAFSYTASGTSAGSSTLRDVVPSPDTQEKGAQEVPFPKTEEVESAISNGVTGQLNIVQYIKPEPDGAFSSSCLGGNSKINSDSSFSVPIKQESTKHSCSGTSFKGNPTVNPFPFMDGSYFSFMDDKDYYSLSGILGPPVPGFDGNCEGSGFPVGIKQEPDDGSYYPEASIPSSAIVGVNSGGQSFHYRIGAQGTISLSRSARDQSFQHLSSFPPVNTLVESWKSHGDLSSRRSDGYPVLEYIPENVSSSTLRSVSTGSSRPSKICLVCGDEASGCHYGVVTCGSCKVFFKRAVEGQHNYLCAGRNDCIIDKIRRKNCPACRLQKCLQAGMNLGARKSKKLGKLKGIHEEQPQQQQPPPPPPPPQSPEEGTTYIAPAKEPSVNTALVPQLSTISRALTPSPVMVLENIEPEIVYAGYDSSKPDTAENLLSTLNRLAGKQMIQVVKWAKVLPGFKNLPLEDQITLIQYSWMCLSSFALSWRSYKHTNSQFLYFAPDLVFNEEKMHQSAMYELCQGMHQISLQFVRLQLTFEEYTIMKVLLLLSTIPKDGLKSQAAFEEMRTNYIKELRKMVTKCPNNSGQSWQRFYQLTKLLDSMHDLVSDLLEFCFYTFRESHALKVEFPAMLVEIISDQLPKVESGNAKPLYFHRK
Description: Displacement of radiolabeled aldosterone from human MR

Progesterone receptor = target: T4, Progesterone receptor (Homo sapiens, UniProt P06401)
T4 sequence (P06401 whole entry): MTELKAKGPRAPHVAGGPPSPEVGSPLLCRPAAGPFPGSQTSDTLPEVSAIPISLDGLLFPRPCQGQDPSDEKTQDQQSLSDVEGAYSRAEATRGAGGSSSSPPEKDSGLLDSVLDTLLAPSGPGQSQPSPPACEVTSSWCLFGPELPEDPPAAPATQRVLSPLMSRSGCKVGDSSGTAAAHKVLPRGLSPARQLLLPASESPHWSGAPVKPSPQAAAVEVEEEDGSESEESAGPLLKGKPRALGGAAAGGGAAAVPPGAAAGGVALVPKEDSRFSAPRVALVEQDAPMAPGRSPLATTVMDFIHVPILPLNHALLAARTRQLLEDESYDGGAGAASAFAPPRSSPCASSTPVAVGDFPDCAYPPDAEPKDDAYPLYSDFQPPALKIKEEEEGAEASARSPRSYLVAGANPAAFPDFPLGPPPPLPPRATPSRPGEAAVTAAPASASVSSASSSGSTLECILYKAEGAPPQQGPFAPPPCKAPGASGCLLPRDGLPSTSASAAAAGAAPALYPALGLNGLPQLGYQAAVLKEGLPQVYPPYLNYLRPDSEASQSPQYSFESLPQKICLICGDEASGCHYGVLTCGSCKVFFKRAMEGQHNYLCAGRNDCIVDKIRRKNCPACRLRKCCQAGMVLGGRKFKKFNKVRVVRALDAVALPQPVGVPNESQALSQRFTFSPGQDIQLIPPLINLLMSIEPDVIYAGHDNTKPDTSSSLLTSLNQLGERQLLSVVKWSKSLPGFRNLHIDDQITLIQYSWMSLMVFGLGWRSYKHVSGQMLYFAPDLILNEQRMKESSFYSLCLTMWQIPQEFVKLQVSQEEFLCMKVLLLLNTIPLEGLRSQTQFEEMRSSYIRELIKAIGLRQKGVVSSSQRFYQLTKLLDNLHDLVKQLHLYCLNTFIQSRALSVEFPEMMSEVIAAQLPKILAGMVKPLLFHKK
Description: Displacement of [3H]progesterone from human PRA

Androgen receptor [3] = target: T1, Androgen receptor; experiment: biochemical
Description: Displacement of [3H]DHT from human AR expressed in MDA-MB-453 cells

Androgen receptor [4] = target: T1, Androgen receptor; remark: listed apart in the source
Description: Agonist activity at human androgen receptor expressed in CV1 cells by transcriptional activation assay

Rattus norvegicus [5] = species on record: Rattus norvegicus; settings: dose 100 mg/kg; route oral
Rattus norvegicus [6] = species on record: Rattus norvegicus; settings: dose 100 mg/kg; route oral; remark: listed apart in the source

Structure (SMILES)	IC50 (Androgen receptor [1])	Ki (Androgen receptor [3])	EC50 (Androgen receptor [4])	further results
CN1CCOc2cc3[nH]c(=O)cc(C(F)(F)F)c3cc21	> 10000 nM			
O=c1cc(C(F)(F)F)c2cc3c(cc2[nH]1)OCCN3CC1CC1				Ki (Glucocorticoid receptor): 8800 nM; Ki [2]: > 10000 nM; Ki (Progesterone receptor): 2000 nM
CC1COc2cc3[nH]c(=O)cc(C(F)(F)F)c3cc2N1 (racemic)		113 nM	133 nM	
CC1COc2cc3[nH]c(=O)cc(C(F)(F)F)c3cc2N1CC1CC1 (racemic)		4 nM	1.9 nM	
O=c1cc(C(F)(F)F)c2cc3c(cc2[nH]1)OCCN3Cc1ccccc1	224 nM	206 nM	> 10000 nM	
CCCN1CCOc2cc3[nH]c(=O)cc(C(F)(F)F)c3cc21	> 10000 nM			
O=c1cc(C(F)(F)F)c2cc3c(cc2[nH]1)OCCN3	296 nM	> 1000 nM	> 10000 nM	
CCC1CN(CC)c2cc3c(C(F)(F)F)cc(=O)[nH]c3cc2O1 (racemic)	> 10000 nM	34 nM	31 nM	
CC(C)CN1CCOc2cc3[nH]c(=O)cc(C(F)(F)F)c3cc21		17 nM	3.2 nM	
CCC1CN(CC(F)(F)F)c2cc3c(C(F)(F)F)cc(=O)[nH]c3cc2O1 (racemic)	> 10000 nM	30 nM	15 nM	
CCC1COc2cc3[nH]c(=O)cc(C(F)(F)F)c3cc2N1CC (racemic)		5.6 nM	3.9 nM	
CCN1CCOc2cc3[nH]c(=O)cc(C(F)(F)F)c3cc21	> 10000 nM			Ki (Glucocorticoid receptor): 8100 nM; Ki [2]: > 10000 nM; Ki (Progesterone receptor): 5200 nM
CC1CN(C)c2cc3c(C(F)(F)F)cc(=O)[nH]c3cc2O1 (racemic)		33 nM	47 nM	
CC1CN(CC(F)(F)F)c2cc3c(C(F)(F)F)cc(=O)[nH]c3cc2O1 (racemic)				Ki (Glucocorticoid receptor): > 10000 nM; Ki [2]: > 10000 nM; Ki (Progesterone receptor): 7000 nM
CC(C)(C)N1CCOc2cc3[nH]c(=O)cc(C(F)(F)F)c3cc21	> 10000 nM	48 nM	7.8 nM	
O=c1cc(C(F)(F)F)c2cc3c(cc2[nH]1)OCCN3CC(F)(F)F	> 10000 nM			Ki (Glucocorticoid receptor): 9200 nM; Ki [2]: > 10000 nM; Ki (Progesterone receptor): 5300 nM
CCC1CN(C)c2cc3c(C(F)(F)F)cc(=O)[nH]c3cc2O1 (racemic)	67 nM	58 nM	52 nM	
CCN1c2cc3c(C(F)(F)F)cc(=O)[nH]c3cc2OCC1C (racemic)		4.2 nM	10 nM	
C[C@]1(O)CC[C@H]2[C@@H]3CCC4=CC(=O)CC[C@]4(C)[C@@]3(F)[C@@H](O)C[C@@]21C [FLUOXYMESTERONE]				Efficacy (Rattus norvegicus [5]): 129%; Efficacy (Rattus norvegicus [6]): 79%
CC1CN(CC(F)(F)F)c2cc3c(C(F)(F)F)cc(=O)[nH]c3cc2O1 (stereo in doubt; (-)-10h)	> 10000 nM			
CCC1COc2cc3[nH]c(=O)cc(C(F)(F)F)c3cc2N1CC1CC1 (racemic)		23 nM	2.3 nM	Ki (Glucocorticoid receptor): > 10000 nM; Ki (Progesterone receptor): 5400 nM
CC(C)[C@@H]1COc2cc3[nH]c(=O)cc(C(F)(F)F)c3cc2N1CC(F)(F)F		51 nM	5.9 nM	
O=c1cc(C(F)(F)F)c2cc3c(cc2[nH]1)OCC1CCCCN31 (racemic)		16 nM	14 nM	Ki (Glucocorticoid receptor): > 10000 nM; Ki (Progesterone receptor): > 10000 nM
O=c1cc(C(F)(F)F)c2cc3c(cc2[nH]1)OC[C@H]1CCCN31		27 nM	26 nM	
CC(C)C[C@@H]1COc2cc3[nH]c(=O)cc(C(F)(F)F)c3cc2N1CC(F)(F)F		109 nM	27 nM	
